Measured values as given in patent US7923465B2, “Cannabinoid receptor ligands, pharmaceutical compositions containing them, and process for their preparation” (priority 2005, dated 2011).
pIC50: −log10 of the molar value. Read-outs that look alike come from different tables or passages of the source.

How the values were obtained:
hCB2 [1] = biological target: T1, hCB2 (Homo sapiens, UniProt P34972); assay: Agonism of CB2 receptors expressed in CHO cells, forskolin cAMP assay (Protocol IX.2); type: cell-based; set-up: expressed in transfected cells; host or cells: CHO (h-CB2/CHO, G418-selected); conditions: cAMP
Procedure, shortened: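 CHO cells expressing h-CB2 were treated with compound in Krebs buffer with 0.1% FAF BSA and 1 mM IBMX, plus 10 uM forskolin, for 30 minutes at room temperature. cAMP in lysates was measured by chemiluminescence. EC50 was derived by nonlinear regression of dose–response curves, with CP 55,940 at 10 μM as reference for CB2.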

hCB2 [2] = biological target: T1, hCB2; assay: In vitro binding assay using hCB2-CHO membranes, [3H]-CP-55,940 displacement (Protocol IV); set-up: expressed in transfected cells; host or cells: CHO (hCB2-CHO, generated in-house); conditions: for inhibition at 0.3 µM: 1 h, read-out: % Displacement Protocol IV
Procedure, shortened: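 Compounds were tested at a single 300 nM final concentration for displacing 0.75 nM [3H]-CP-55,940 from hCB2-CHO membranes (1 h, 30 °C, 50 mM Tris pH 7.4, 5 mM MgCl2, 1 mM EDTA, 0.1% BSA). Filter-bound radioactivity was counted, with 0.5 μM unlabelled CP-55,940 for nonspecific binding; results are % displacement.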

hCB1 [3] = biological target: T2, hCB1 (Homo sapiens, UniProt P21554); assay: Agonism of CB1 receptors expressed in CHO cells, forskolin cAMP assay (Protocol IX.2); type: cell-based; set-up: expressed in transfected cells; host or cells: CHO (h-CB1/CHO, G418-selected); conditions: for activation at 10 µM: CHO; for activation at 10 µM / hCB1 Agonism: h-CB1/CHO cells, cAMP, at 10 uM
Protocol: (§1) IX. Assay for Determining Agonist and Antagonist Activity to CB1 and CB2 Receptors
2. Agonism of CB1/CB2 Receptors Expressed in CHO Cells
(§2) h-CB1/CHO or h-CB2/CHO cells were grown in HAM's F12 DMEM medium (Sigma) with 10% FBS (Hyclone), 1% penicillin-streptomycin solution and 400 μg/ml of G418 (Sigma). 5000 cells were seeded per well in a 96 well plate and incubated for 24 hours at 37° C. in 5% CO2. On the day of assay, cells were washed with warm Krebs Buffer containing 0.1% fatty acid free (FAF) BSA (Sigma) and re-suspended in the same buffer containing 1 mM IBMX. […] At the end of incubation, cells were lysed using lysis reagent from the cAMP estimation kit and cAMP was quantitated by chemiluminescence method described in the manufacturer's instructions (DiscoveRX). EC50 values were calculated from dose response curves by nonlinear regression analysis using PRISM software.

hCB2 [4] = biological target: T1, hCB2; assay: Antagonism of CB2 receptors expressed in CHO cells, cAMP assay against CP 55,940 (Protocol IX.1); type: cell-based; set-up: expressed in transfected cells; host or cells: CHO (h-CB2/CHO, G418-selected); conditions: h-CB2/CHO cells, vs 10 nM CP 55,940; for inhibition at 10 µM: CHO; for hCB2 Antagonism: at 10 uM
Protocol: as §1
(§3) 1. Antagonism of CB1/CB2 Receptors Expressed in CHO Cells.
h-CB1/CHO or h-CB2/CHO cells were grown in HAM's F12 DMEM medium (Sigma) with 10% FBS (Hyclone), 1% penicillin-streptomycin solution and 400 μg/ml of G418 (Sigma). 5000 cells were seeded per well in a 96 well plate and incubated for 24 hours at 37° C. in 5% CO2. On the day of assay, cells were washed with warm Krebs buffer containing 0.1% fatty acid free (FAF) BSA (Sigma) and re-suspended in the same buffer containing 1 mM IBMX. Test antagonist or reference compound (AM 251 (1-(2,4-dichlorophenyl)-5-(4-iodophenyl)-4-methyl-N-(1-piperidyl)pyrazole-3-carboxamide) for CB1 and SR144528 for CB2) diluted in FAFBSA+IBMX+Krebs buffer was added to the cells and incubated for 10 minutes at room temperature. CP 55,940 (30 nM final concentration for CB1 testing and 10 nM of the same for CB2 testing) was added to cells followed by forskolin (10 μM final concentration) and incubated for 30 minutes at room temperature. At the end of incubation, cells were lysed using lysis reagent from the cAMP estimation kit and cAMP was quantitated by the chemiluminescence method described in the manufacturer's instructions (DiscoveRX). EC50 values were calculated from dose response curves by nonlinear regression analysis using PRISM software.

hCB1 [5] = biological target: T2, hCB1; assay: Antagonism of CB1 receptors expressed in CHO cells, cAMP assay against CP 55,940 (Protocol IX.1); type: cell-based; set-up: expressed in transfected cells; host or cells: CHO (h-CB1/CHO, G418-selected); conditions: for inhibition at 10 µM: read-out: hCB1 Antagonism
Protocol: as §1, §3
as §2, with “warm Krebs buffer containing 0.1%” for “warm Krebs Buffer containing 0.1%”, “quantitated by the chemiluminescence method” for “quantitated by chemiluminescence method”

CB1 = CB1 (Rattus norvegicus, UniProt P20272); assay: Rat CB1 receptor binding using brain membrane, [3H]SR141716A displacement (Protocol I); set-up: CB1 receptor present in a rat brain membrane preparation; from tissue; host or cells: rat brain membrane; inhibition: dose or concentration left out as unconfirmed; conditions: 1 h; rat brain membrane, [3H]SR141716A displacement; read-out: % Displacement Protocol I
hCB1 [6] = biological target: T2, hCB1; assay: In vitro binding assay using hCB1-CHO membranes, [3H]-CP-55,940 displacement (Protocol II); set-up: expressed in transfected cells; host or cells: CHO (hCB1-CHO, generated in-house)
Procedure, shortened: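 Incubated 1 h at 37° C, stopped by rapid vacuum filtration on PEI-precoated GF/B filters, bound radioactivity counted by liquid scintillation.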

[7] = hCB2 Agonism IC50, h-CB2/CHO cells
[8] = hCB2-CHO membranes, [3H]-CP-55,940 displacement
[9] = at 10 uM, h-CB1/CHO cells, cAMP, vs 30 nM CP 55,940
[10] = h-CB2/CHO cells, read-out: hCB2 Agonism IC50

T1 sequence (P34972 whole entry): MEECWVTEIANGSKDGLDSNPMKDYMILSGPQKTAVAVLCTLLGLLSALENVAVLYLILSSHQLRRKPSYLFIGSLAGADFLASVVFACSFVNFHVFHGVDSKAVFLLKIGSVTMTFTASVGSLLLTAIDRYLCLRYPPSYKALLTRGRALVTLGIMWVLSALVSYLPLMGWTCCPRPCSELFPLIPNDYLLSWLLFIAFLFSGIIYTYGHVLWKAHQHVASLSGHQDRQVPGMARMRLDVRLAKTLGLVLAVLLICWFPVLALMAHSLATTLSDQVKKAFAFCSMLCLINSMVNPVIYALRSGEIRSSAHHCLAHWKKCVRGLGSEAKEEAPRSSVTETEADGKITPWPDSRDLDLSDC
T2 sequence (P21554 whole entry): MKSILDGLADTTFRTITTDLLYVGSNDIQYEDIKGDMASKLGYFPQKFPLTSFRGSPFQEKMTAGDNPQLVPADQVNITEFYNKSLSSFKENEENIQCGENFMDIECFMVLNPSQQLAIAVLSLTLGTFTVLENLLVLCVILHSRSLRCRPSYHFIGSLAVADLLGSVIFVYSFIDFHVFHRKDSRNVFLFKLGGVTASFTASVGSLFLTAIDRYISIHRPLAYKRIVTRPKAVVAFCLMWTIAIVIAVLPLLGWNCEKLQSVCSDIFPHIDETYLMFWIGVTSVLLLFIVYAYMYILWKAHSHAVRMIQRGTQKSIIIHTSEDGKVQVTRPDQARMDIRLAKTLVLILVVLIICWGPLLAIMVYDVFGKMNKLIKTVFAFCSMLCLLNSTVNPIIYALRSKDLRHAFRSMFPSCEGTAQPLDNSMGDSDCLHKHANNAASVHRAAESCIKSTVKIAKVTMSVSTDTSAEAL
Sequence of CB1 (P20272 whole entry): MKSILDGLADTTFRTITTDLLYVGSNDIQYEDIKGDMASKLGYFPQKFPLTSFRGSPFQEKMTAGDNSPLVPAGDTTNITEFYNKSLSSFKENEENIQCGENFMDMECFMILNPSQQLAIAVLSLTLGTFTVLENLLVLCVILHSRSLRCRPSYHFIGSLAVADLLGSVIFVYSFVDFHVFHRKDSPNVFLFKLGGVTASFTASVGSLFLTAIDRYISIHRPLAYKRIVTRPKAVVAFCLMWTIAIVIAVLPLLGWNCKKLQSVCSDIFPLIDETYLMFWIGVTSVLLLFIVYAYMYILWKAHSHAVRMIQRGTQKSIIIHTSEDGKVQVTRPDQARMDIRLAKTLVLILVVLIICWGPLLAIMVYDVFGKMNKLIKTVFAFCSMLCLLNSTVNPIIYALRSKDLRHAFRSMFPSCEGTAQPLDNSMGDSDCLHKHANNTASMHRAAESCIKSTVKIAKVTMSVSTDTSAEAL

Structure (SMILES)	pIC50 (hCB2 [1]; [7])	melting point [°C]	inhibition at 0.3 µM (hCB2 [2]; [8]) [%]	activation at 10 µM (hCB1 [3]) [%]	inhibition at 10 µM (hCB2 [4]) [%]	inhibition at 10 µM (hCB1 [5]; [9]) [%]	pIC50 (hCB2 [1]; [10])	inhibition at 0.3 µM (hCB2 [2]) [%]	also measured
O=C(NCc1ccc(F)cc1F)c1nn(-c2ccc(Cl)cc2Cl)c2c1C1CCC2C1 (stereo not drawn) [Example 247, N(3)-(2,4-Difluorobenzyl)-1-(2,4-dichlorophenyl)-4,5,6,7-tetrahydro-1H-4,7-methano-indazole-3-carboxamide]	8.26	73 to 76	79.1	0	29.2	75.3	–	–	–
CC(C)(C)NC(=O)c1nn(-c2ccc(F)cc2F)c2c1[C@@H]1CC[C@H]2C1 (single isomer, unassigned) [Example 305]	–	–	–	–	–	–	8.67	–	hCB1 Agonism (hCB1 [3]): 20% at; hCB2 Antagonism (hCB2 [4]): 37.45% at; hCB1 Antagonism (hCB1 [5]; [9]): 0% at 10 uM
O=C(Nc1ccc(F)cc1F)c1nn(-c2ccc(Cl)cc2Cl)c2c1C1CCC2C1 (stereo not drawn) [Example 244, N(3)-(2,4-Difluorophenyl)-1-(2,4-dichlorophenyl)-4,5,6,7-tetrahydro-1H-4,7-methano-indazole-3-carboxamide]	–	152 to 155	–	0	25.3	61.5	8.25	88.3	–
CC(C)(C)NC(=O)c1nn(-c2ccc(F)cc2F)c2c1C1CCC2C1 (stereo not drawn) [Example 303, N(3)-(tert-Butyl)-1-(2,4-difluorophenyl)-4,5,6,7-tetrahydro-1H-4,7-methano-indazole-3-carboxamide]	–	–	–	–	17.6	–	9.21	89.7	pIC50 (hCB1 [3]): 4.96; inhibition at 10 µM (hCB1 [5]; CHO): 0%
O=C(NC1CCC1)c1nn(-c2ccc(F)cc2F)c2c1C1CCC2C1 (stereo not drawn) [Example 315, N(3)-Cyclobutyl-1-(2,4-difluorophenyl)-4,5,6,7-tetrahydro-1H-4,7-methano-indazole-3-carboxamide]	–	123 to 125	–	12.6	16.1	1	8.75 to 9.80	64.2	–
O=C(NNc1ccccc1F)c1nn(-c2ccc(F)cc2F)c2c1C1CCC2C1 (stereo not drawn) [Example 288, N(3)-[(2-Fluorophenyl)amino]-1-(2,4-difluorophenyl)-4,5,6,7-tetrahydro-1H-4,7-methano-indazole-3-carboxamide]	8.32	172 to 175	60.8	0	17.1	55.3	–	–	–
O=C(N[C@@H](CO)c1ccccc1)c1nn(-c2ccc(F)cc2F)c2c1C1CCC2C1 (stereo partly drawn) [Example 320, N(3)-[(1R)-2-Hydroxy-1-phenylethyl]-1-(2,4-difluorophenyl)-4,5,6,7-tetrahydro-1H-4,7-methano-indazole-3-carboxamide]	–	–	–	29.1	22.5	0	8.90 to 9.12	67.8	–
O=C(NCc1ccccc1)c1n[nH]c2c1C1CC3CC(CC2C3)C1 [Example 186, N(7)-Benzyl-5,6-diazatetracyclo[7.3.1.1^3,11.0^4,8]tetradeca-4(8)-6-diene-7-carboxamide]	8.07	–	59.1	29.4	21	0	–	–	inhibition (CB1): 17.2%
O=C(NCC1CCOCC1)c1nn(-c2ccc(F)cc2F)c2c1C1CCC2C1 (stereo not drawn) [Example 316, N(3)-(Tetrahydro-2H-4-pyranmethyl)-1-(2,4-difluorophenyl)-4,5,6,7-tetrahydro-1H-4,7-methano-indazole-3-carboxamide]	–	–	–	–	–	–	8.37 to 8.92	–	% Displacement Protocol IV (hCB2 [2]; [8]): 66.65%; hCB1 Agonism (hCB1 [3]): 18.53% at; hCB2 Antagonism (hCB2 [4]): 37.63% at; hCB1 Antagonism (hCB1 [5]; [9]): 2% at 10 uM; % Displacement Protocol II (hCB1 [6]): 13.83%
CC(C)(C)NC(=O)c1nn(-c2ccc(F)cc2F)c2c1[C@@H]1CC[C@H]2C1 (single isomer, unassigned) [Example 304]	–	–	–	–	51.6	0	9.03	–	hCB1 Agonism (hCB1 [3]): 55% at
O=C(NCc1ccccc1F)c1nn(-c2ccc(Cl)cc2Cl)c2c1C1CCC2C1 (stereo not drawn) [Example 245, N(3)-(2-Fluorobenzyl)-1-(2,4-dichlorophenyl)-4,5,6,7-tetrahydro-1H-4,7-methano-indazole-3-carboxamide]	7.30	54	84.8	0	32.9	70.7	–	–	–
O=C(NCC1CC1)c1nn(-c2ccc(F)cc2F)c2c1C1CCC2C1 (stereo not drawn) [Example 314, N(3)-Cyclopropanmethyl-1-(2,4-difluorophenyl)-4,5,6,7-tetrahydro-1H-4,7-methano-indazole-3-carboxamide]	–	113 to 115	–	3.41	22.9	0	8.07	64.9	–
CC(C)(C)NC(=O)c1nn(-c2ccc(F)cc2)c2c1C1CCC2C1 (stereo not drawn) [Example 323, N(3)-(tert-Butyl)-1-(4-fluorophenyl)-4,5,6,7-tetrahydro-1H-4,7-methano-indazole-3-carboxamide]	–	131 to 133	–	0	18	0	7.85	82.5	–
